Assay results as given in ChEMBL document CHEMBL1142865, “22-Alkyl-20-epi-1alpha,25-dihydroxyvitamin D3 compounds of superagonistic activity: syntheses, biological activities and interaction with the receptor” (J Med Chem, 2007).

Assays:
[1] = tested on: Rattus norvegicus; assay: Effect on intestinal calcium transport in low-calcium diet fed rat assessed as serosal:mucosal ratio of calcium at 325 pmol/day, ip after 7 days; assay type: functional
[2] = tested on: Rattus norvegicus; assay: Effect on bone calcium mobilization in low-calcium diet fed rat assessed by measuring at 650 pmol/day, ip after 7 days; assay type: functional
[3] = tested on: Rattus norvegicus; assay: Effect on intestinal calcium transport in low-calcium diet fed rat assessed as serosal:mucosal ratio of calcium at 100 pmol/day, ip after 7 days; assay type: functional
[4] = tested on: Rattus norvegicus; assay: Effect on bone calcium mobilization in low-calcium diet fed rat at 325 pmol/day, ip after 7 days; assay type: functional
[5] = tested on: Rattus norvegicus; assay: Effect on intestinal calcium transport in low-calcium diet fed rat assessed as serosal:mucosal ratio of calcium at 650 pmol/day, ip after 7 days; assay type: functional
[6] = biological target: T1, Vitamin D3 receptor (Homo sapiens, UniProt P11473); assay: Induction of transactivation of human VDR responsive gene in COS7 cells by rat osteopontin luciferase reporter gene assay; assay type: cell-based, COS-7
T1 sequence (P11473 whole entry): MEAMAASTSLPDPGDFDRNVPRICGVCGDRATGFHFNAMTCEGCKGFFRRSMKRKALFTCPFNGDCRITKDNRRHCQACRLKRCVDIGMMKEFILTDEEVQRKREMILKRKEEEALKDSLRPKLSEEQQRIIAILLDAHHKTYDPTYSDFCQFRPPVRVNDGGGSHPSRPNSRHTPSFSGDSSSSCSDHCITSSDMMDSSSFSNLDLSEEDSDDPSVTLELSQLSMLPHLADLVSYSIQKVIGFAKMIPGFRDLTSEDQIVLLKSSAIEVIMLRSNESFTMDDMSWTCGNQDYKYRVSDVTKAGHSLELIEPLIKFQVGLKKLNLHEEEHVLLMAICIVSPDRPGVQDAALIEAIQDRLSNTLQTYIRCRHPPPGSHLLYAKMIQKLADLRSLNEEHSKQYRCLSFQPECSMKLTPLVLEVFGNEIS

[7] = tested on: HL-60; assay: Induction of human HL60 cell differentiation to monocytes by NBT reduction assay; assay type: functional, cell-based
[8] = biological target: T2, Vitamin D3 receptor (Bos taurus, UniProt Q28037); assay: Displacement of [3H]1,25-(OH)2D3 from vitamin D receptor in bovine thymus
T2 sequence (Q28037 whole entry): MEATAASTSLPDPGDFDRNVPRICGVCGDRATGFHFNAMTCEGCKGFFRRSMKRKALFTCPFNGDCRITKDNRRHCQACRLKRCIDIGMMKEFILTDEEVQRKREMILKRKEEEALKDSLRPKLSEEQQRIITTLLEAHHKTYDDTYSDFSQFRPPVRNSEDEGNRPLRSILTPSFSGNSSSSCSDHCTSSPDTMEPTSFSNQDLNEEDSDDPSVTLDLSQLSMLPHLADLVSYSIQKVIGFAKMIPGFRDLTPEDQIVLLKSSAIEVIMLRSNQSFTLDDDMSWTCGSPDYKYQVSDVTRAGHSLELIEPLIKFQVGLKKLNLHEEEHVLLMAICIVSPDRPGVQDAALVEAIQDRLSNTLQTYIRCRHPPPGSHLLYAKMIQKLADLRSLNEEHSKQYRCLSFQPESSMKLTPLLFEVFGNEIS

[9] = tested on: Rattus norvegicus; assay: Effect on bone calcium mobilization in low-calcium diet fed rat at 100 pmol/day, ip after 7 days; assay type: functional

Structure (SMILES)	Ratio [1]	Activity [2]	Ratio [3]	Activity [4]	Ratio [5]	EC50 [6] [nM]	EC50 [7] [nM]	EC50 [8] [nM]	Activity [9]
C=C1/C(=C\C=C2/CCC[C@@]3(C)C2CC[C@@H]3[C@@H](C)[C@H](C)CCC(C)(C)O)C[C@@H](O)C[C@@H]1O (stereo partly drawn)	8.2	8.4	7	8.1	12.2	0.003	0.018	0.031	5
C=C1/C(=C\C=C2/CCC[C@@]3(C)C2CC[C@@H]3[C@@H](C)[C@H](CC)CCC(C)(C)O)C[C@@H](O)C[C@@H]1O (stereo partly drawn)	6.3	6.2	5.7	5	8.5	0.002	0.057	0.018	3.9
C=C1/C(=C\C=C2/CCC[C@@]3(C)C2CC[C@@H]3[C@@H](C)[C@H](CCCC)CCC(C)(C)O)C[C@@H](O)C[C@@H]1O (stereo partly drawn)	–	–	–	–	–	0.2	1.05	0.89	–
C=C1/C(=C\C=C2/CCC[C@]3(C)[C@@H]([C@H](C)CCCC(C)(C)O)CC[C@@H]23)C[C@@H](O)C[C@@H]1O [CALCITRIOL]	–	–	–	5.5	–	–	–	–	4.6
